Test results taken from US8716296B2 (Ingenium Pharmaceuticals GmbH, priority 2007, dated 2014).

Key:
[1] = test system: LPS induced THP-1 macrophages; assay: In vitro THP-1 assay, model of cytokine inhibition; format: cell-based, human; details: differentiated THP-1 cells, 60 min pre-incubation, LPS 4-48 h, ELISA, versus vehicle (DMSO)
Procedure: The human THP-1 cell line can be utilized as an in vitro model of cytokine expression as mediated by Lipopolysaccharide (LPS) or Tumor Necrosis Factorα [TNFα].
Monocytic THP-1 cells (ATCC; TIB-202) can be differentiated into macrophage-like cells expressing pro-inflammatory cytokines like TNFα, IL6 and IL1β upon induction with LPS or by TNFα (autocrine induction) itself.
THP-1 cells are grown in modified RPMI-1640 medium (ATCC, Cat. No. 30-2001) supplemented with 10% FCS and 1% Pen/Strep. For cytokine inhibition assays, cells are seeded at a density of 5×10^5 cells/ml into 6-well plates in standard growth medium supplemented with 100 ng/ml PMA (Sigma, P1585) to induce differentiation into macrophage-like cells. After 24 hours, the medium is replaced with standard growth medium (without PMA) and the cells are incubated for another 48 hours to complete differentiation.
After 72 h of differentiation, the medium is replaced with serum free growth medium, and CDK-inhibiting compounds as well as reference compounds such as positive and negative controls, each dissolved in DMSO are added at concentrations ranging from 0.5 to 5 μM (final concentration of DMSO in the well is 0.1%). Cells are incubated for 60 min with compounds prior to stimulation with 100 ng/ml LPS (Sigma, L2630) for another 4-48 hours. Supernatants are collected and assayed immediately for cytokine expression, e.g. for TNFα, IL-6 and IL-1b using commercially available sandwich ELISA assays (eBioscience, Cat. No 88-7346, 88-7066, 88-7010) or kept frozen at […] until evaluation.
Concentrations of TNFα, IL6 and IL1β within the cell culture supernatants are measured by using commercial ELISA Kits (eBioscience) according to the manufacturers instructions.
CDK-inhibitory compounds #1A, 16A, 20A, and 25A were administered to differentiated THP-1 cells in triplicates as described above (see section 2.). After 60 min of pre-incubation with test or reference compound (SB203580, a p38 inhibitor and BMS345541, an IKK-inhibitor) alone, cells were stimulated with LPS. After incubation for 4-48 h, supernatants were collected and ELISA based determinations of cytokine supernatant concentrations were performed as described in section 3, supra.

LPS induced mice = assay: LPS in vivo assay, model of cytokine repression in vivo; design: species or system mice (strain C3HeB/FeJ); details: 10 or 30 mg/kg i.p. 30 min prior to LPS, blood 90 min after LPS, ELISA, versus vehicle
Procedure: For the LPS induced model of septic shock, mice receive an intraperitoneal (i.p.) injection of 30 μg bacterial Lipopolysaccharide (LPS; L2630 SIGMA) in saline. Said LPS-mediated initiation of the inflammatory signalling cascade results in increasing blood serum concentrations of cytokines such as e.g. TNFα, IL-6 and IL1β. Blood can be taken from these animals at defined time points. Thereafter, serum will be separated and the samples can be stored at −80° C. until cytokine concentrations are measured using commercial ELISA assays. (A L Moreira et al., Braz J Med Biol Res 1997; 30:1199-1207).
Wildtype mice (strain C3HeB/FeJ) (age, sex and weight matched) were injected with 30 μg LPS (SIGMA) intraperitoneally. 90 minutes after LPS administration these animals were anaesthetized with 0.1 m1/10 g bodyweight Ketamine-Rompun (50/20 mg/ml), and blood for serum preparation was taken via cardiac puncture.
Pharmacological treatment groups (n=4) of LPS mice received intraperitoneal (i. p.) injections of CDK-inhibiting compounds or the vehicle (negative control), respectively. In particular, compounds #1A and 16A were administered.
10 or 30 mg/kg (compound per bodyweight) of a CDK inhibitor, dissolved in 20% DMSO, 5% Tween 80, 10% Tris 1M pH8, 20% PEG400, 45% PBS was administered as a single dosage 30 min prior to LPS stimulation. Vehicle control was administered in the same manner.
90 minutes (min) after LPS stimulation, blood samples were taken from the mice. Previously, the 90 min time point had been identified as the peak of TNF alpha expression in this animal model by a time course experiment.
Blood samples (˜500 μl/animal) from the LPS animals were incubated on wet ice for 30 min after cardiac puncture. Afterwards the samples were centrifuged for 15 min at 13.000 rpm. Serum was separated from the clot and stored frozen at −80° C.
Serum concentrations of TNF alpha and IL6 within the samples were measured by using commercial ELISA Kits (Natutec) according to the manufacturers instructions.

SNI mice = assay: Spared nerve injury (SNI) model of chronic neuropathic pain, von Frey assay; format: in vivo, mice (strain C3HeB/FeJ); details: 30 mg/kg p.o., 30 min before measurement, day 107 post SNI, versus vehicle
Text: As outlined above, the spared nerve injury (SNI) model (see FIG. 1) involves a lesion of two of the three terminal branches of the sciatic nerve (tibial and common peroneal nerves) of experimental animals, leaving the sural nerve intact. SNI results in mechanical and thermal allodynia in the non-injured sural nerve skin territory (Decosterd and Woolf, Pain 2000; 87:149-158. (2) Tsujino et al., Mol. Cel. Neurosci. 2000; 15:170-182).
Wildtype mice (strain C3HeB/FeJ) (age, sex and weight matched) were anesthetized with Hypnorm (0.315 mg/ml fentanyl citrate+10 mg/ml fluanisone; Janssen)/Hypnovel (5 mg/ml midazolam; Roche Applied Sciences)/water at a ratio of 1:1:2 at 4 μl/g prior to surgical preparation. […]
30 mg/kg of a CDK inhibitor, dissolved in 400 μl of 2% Hydroxprolylcellulose; 0.25% Lactic Acid (85% solution) was administered via per oral application 30 min prior to von Frey measurements (mechanical allodynia). […] Reflex nociceptive responses to mechanical stimulation were measured in a von Frey assay 30 min after each injection. […]
Mechanical thresholds of SNI mice were quantified using the up-down method based on Chaplan et al. (1994) and Malmberg and Basbaum (1998). […]

Compound	IL6 protein concentration in the cell supernatant [1]	TNFα protein concentration in the cell supernatant [1]	IL6 protein concentration in the blood serum (LPS induced mice)	TNFα protein concentration in the blood serum (LPS induced mice)	paw withdrawal threshold to mechanical stimulation (von Frey) (SNI mice)
CCOc1ccccc1-c1cc(NC(=O)C2CCNCC2)ncn1 [Compound 1A, Piperidine-4-carboxylic acid [6-(2-ethoxy-phenyl)-pyrimidin-4-yl]-amide]	significant inhibitory effect	significant inhibitory effect	significant repressive effect	significant repressive effect	
COc1ccccc1-c1cc(NC(=O)C2CCCNC2)ncn1 (stereo not drawn) [Compound 16A, Piperidine-3-carboxylic acid [6-(2-methoxy-phenyl)-pyrimidin-4-yl]amide]	significant inhibitory effect	significant inhibitory effect	significant repressive effect	significant repressive effect	significant increase of threshold values
